We go through two molecules from PMC8296708, “The pan HDAC inhibitor Givinostat improves muscle function and histological parameters in two Duchenne muscular dystrophy murine models expressing different haplotypes of the LTBP4 gene” (Skeletal Muscle, 2021).

Test [1] relates to D2.B10 mice. Description: Centralized nuclei (%) in muscles of D2.B10 mice. Format: in vivo, mouse (D2.B10-Dmd^mdx/J). To be noted: Givinostat 37.5 mg/kg; for Nuclear centralization in TA: prednisone (vehicle 21.2 ± 1.0); for Nuclear centralization in GAS: prednisone (vehicle 25.1 ± 1.5). The source says:
(§1) Tibialis anterior (TA), gastrocnemius (GAS), DIA, and heart were collected from mice maintained under isoflurane anesthesia and sacrificed by cervical dislocation. These muscles were collected from C57BL/10J wt and mdx (5 mice/group) at the end of treatments and from DBA/2J wt and D2.B10 mice (5 mice/group) at two different time points to be examined by a pathologist (for more details see Additional Table 1). Due to the results obtained by the functional tests, muscles from only some treatment groups were analyzed in both DMD models (see Additional Table 1). All the collected muscles were fixed in 10% buffered formalin solution (Bio-optica, Milan, Italy) at + 4 °C for at least 48 h. After fixation, muscular samples were transversely trimmed, caged, and paraffin embedded overnight with an Automated Vacuum Tissue Processor Floor (ETP, Histo-Line Laboratories) and included in paraffin blocks. Serial transverse cross-sections (4 μm thick) were cut with a microtome (Leica RM 2255), collected onto uncoated glass slides, and stained using a standard protocol for hematoxylin and eosin (Mayer hematoxylin & Aqueous G Eosin 1%, Bio-Optica) and Sirius Red staining (Direct Red 80, Sigma-Aldrich). For the image analysis and quantitation, hematoxylin and eosin- and Sirius Red-stained slides were examined with an Olympus BX51 light microscope. From each sample, 1 to 3 random microphotographs at the magnification of × 4 and × 10 (TA, GAS and heart) or × 20 (DIA) were collected using Image-Pro Plus system. The digital images were processed by a pathologist using ImageJ software (U.S. National Institutes of Health, Bethesda, MD, USA). To quantify CSA and centralized nuclei (%) on hematoxylin and eosin-stained sections, one hundred myofibers were manually measured for each muscle/mouse using a tablet pen (Wacom Intruos) and analyzed by the ImageJ software after a linear calibration of 150 μm. The fibrotic area, corresponding to the area stained in red, was compared to the total area of the tissue section, and the results were expressed as percentage fibrosis. The % of fibrosis of muscles in the different treatment groups was expressed by averaging the three values obtained from each muscle.

A further test in a line: Body weight of mdx mice. Format: in vivo, mouse (C57BL/10ScSn-Dmd^mdx/J). How it is done: In the efficacy studies, Givinostat powder (ITF2357) was suspended in 0.5% methylcellulose (Sigma-Aldrich) and administered p.o. (by gavage) at the doses of 0.1, 0.3, 1, 5, 10, 25, and 37.5 mg/kg qdx5x15weeks (administration volume per mouse: 10 mL/kg) in mdx mice (see Additional Figure 1A). Vehicle-treated mdx mice received 0.5% methylcellulose suspension. Givinostat suspension was stored at + 4 °C, and it was freshly prepared every 7 days. Probably due to the impairment of their tongue and masticatory muscles, the oral gavage procedure turned out to be difficult to perform, and chronic treatment of D2.B10 mice by this route was considered to bear a high risk of damaging the esophagus. For this reason, Givinostat was administered in the drinking water. […] Water consumption was weekly monitored throughout the entire duration of the study weighing the bottle of each cage (maximum 4 mice per cage). […] All mice were monitored daily and tolerability was evaluated on the basis of BW and clinical signs.
In both efficacy studies, the effectiveness of treatments was evaluated every week by measuring the forelimb strength by a grip strength meter (Ugo Basile SRL, Italy). BW of mdx (see Additional Figure 2) and D2.B10 mice (see Additional Figure 3) was also measured in order to normalize the absolute grip strength of each mouse with respect to its BW. […]

In test [2] the test system is D2.B10 mice. Description: Histopathological evaluation of severity of myodystrophy in D2.B10 mice. The class given is in vivo, mouse (D2.B10-Dmd^mdx/J). To be noted: T8 and T16. How it is done: In these experiments, the histopathological evaluation of muscle inflammatory infiltrate, adipose tissue deposition, regeneration, and degeneration of the muscular tissue was also performed. The severity of myodystrophy in the different muscles (TA, GAS and DIA) was quantified through a weighted histopathological method that considered some parameters scored by severity and extension of the injury: muscle degeneration/necrosis, regeneration, inflammatory infiltrate, interstitial reaction, and adipose tissue deposition. Each parameter was classified by severity (mild = 1, moderate = 2, and severe = 3) and extension (focal = 1, multifocal = 2, and diffuse = 3). The individual severity score was calculated for each animal and an average score per group was calculated.

Test [3] deals with D2.B10 mice. Briefly: Muscle fibrosis by Sirius Red staining in D2.B10 mice. Format: in vivo, mouse (D2.B10-Dmd^mdx/J). To be noted: for Reduction of fibrosis in DIA: T8; for Reduction of fibrosis in TA: T8, Givinostat 37.5 mg/kg, steroids 1 mg/kg, vs vehicle; for Effect on fibrosis in GAS: T16; for Efficacy on fibrosis in DIA: T16, Givinostat 37.5 mg/kg, prednisone.
Text: as §1

Test [4] relates to in vivo pulmonary fibrosis model. On the set-up: method as in McKinsey TA, unpublished results. To be noted: administered with the diet; ref McKinsey TA, unpublished results; cited from earlier work.
Another test relates to mdx mice. Description: Myofiber cross-sectional area (CSA) in mdx mice. Format: in vivo, mouse (C57BL/10ScSn-Dmd^mdx/J).
Text: as §1
The deciles of the CSA of the animals treated with Givinostat at the different doses were plotted against the corresponding deciles of the vehicle-treated mice and a linear regression analysis was performed on natural [CSAtreated = b CSAcontrol + a] and log_transformed data [log(CSAtreated) = log(a) + b log(CSAcontrol)]. […] In case of untransformed data, this means that the effect of Givinostat treatment is additive and any decile of the CSAtreatment distribution may be derived from the control data summing up a constant quantity (S) to each fiber AREA of the control group (CSAtreated = CSAcontrol + S). In case of log_transformed data, the effect of Givinostat has to be considered as a multiplicative factor on any generic fiber of the muscle under evaluation, whose size, after the treatment, results K times larger in comparison to the control group value (CSAtreated […] = K × CSAcontrol, with K = 10^a). The S or K parameter values were then determined through an iterative estimation procedure, based on sum of squares (SSQ) minimization, directly comparing the CSA distribution observed in treated animals with that obtained summing up the S value or multiplying by K the CSA values of the control group.

SMILES strings stand for the structures.

With `CCN(CC)Cc1ccc2cc(COC(=O)Nc3ccc(C(=O)NO)cc3)ccc2c1` [Givinostat], in the test with D2.B10 mice [1], the “Nuclear centralization in TA” value is reported as 19.8 ± 2.4% and the “Nuclear centralization in GAS” value is listed as 22.4 ± 2.1%. Besides, the Body weight in “Body weight of mdx mice” (25 mg/kg, day 105 (vehicle 37.2 ± 0.8, p < 0.01)) was found to be 32.9 ± 0.9 g. The same molecule came in with a Body weight in the test “Body weight of mdx mice” (37.5 mg/kg, day 105 (vehicle 37.2 ± 0.8, p < 0.05)) of 33.1 ± 0.9 g. Moreover, the “Histological evaluation of inflammatory infiltrate, adipose tissue deposition, regeneration, degeneration” value in the test with D2.B10 mice [2] is given as “not significantly different among the treatment groups”. In the test on D2.B10 mice [3], the “Reduction of fibrosis in DIA” value is listed as “about 33%”, the “Reduction of fibrosis in TA” value is recorded as “about 22%”, the “Effect on fibrosis in GAS” value was “No significant effect” and the “Efficacy on fibrosis in DIA” value is on record as “lost”. The “Activity in in vivo pulmonary fibrosis model” value in test [4] is “inactive”. Further, in the test with mdx mice (37.5 mg/kg (same as vehicle)), the “DIA fiber CSA, peak value” is 550 μm^2. In addition, the “GAS fiber CSA, peak of distribution” value in the test with mdx mice (37.5 mg/kg, after 105 days (vehicle peak 500)) is on record as 1100 μm^2. For the same molecule, in the test with mdx mice (37.5 mg/kg, multiplicative model), the “K, multiplicative factor on GAS fiber CSA vs vehicle” value is listed as 1.72. Also, the “TA fiber CSA, peak value” in the test on mdx mice (10 and 37.5 mg/kg (vehicle 700)) is 900 μm^2. The “S, shift effect parameter on TA CSA vs vehicle” value in the test with mdx mice (additive model) turned out to be 140 μm^2.

Regarding `C[C@]12C=CC(=O)C=C1CC[C@@H]1[C@@H]2C(=O)C[C@@]2(C)[C@H]1CC[C@]2(O)C(=O)CO` [prednisone], in the test with D2.B10 mice [1], the “Nuclear centralization in TA” value stood at 22.0 ± 2.4% and the “Nuclear centralization in GAS” value is listed as 21.6 ± 1.7%. Also, the “Effect of steroid on fibrosis, summary” value with D2.B10 mice [3] (1 mg/kg i.p. weekly) is “significantly reduced fibrosis in TA, GAS, and DIA”. In addition, in the test with D2.B10 mice [3], the “Reduction of fibrosis in DIA” value is around 45%, the “Reduction of fibrosis in TA” value was “about 22%”, the “Effect on fibrosis in GAS” value is on record as “No significant effect” and the “Efficacy on fibrosis in DIA” value is recorded as “lost”. In addition, the “Reduction of fibrosis in GAS” value in the test on D2.B10 mice [3] (T8, vs vehicle) was “about 26%”.
